Assay results as given in patent US20230097157A1, “Bicyclic Pyridin-2-one and pyrimidin-4-one Derivatives Useful As a Factor XIa Inhibitors” (Janssen Pharmaceutica NV, priority 2021, published 2023).
Where two headings read alike, the source gives them in different places.

Tests used:
human plasma kallikrein = human plasma kallikrein (Homo sapiens, UniProt P03952); test: Kallikrein inhibition assay (FLINT) utilizing a quenched AMC peptide substrate Z-Gly-Pro-Arg-AMC; type: biochemical; details: kinetic (KIN) reads, read-out: Kallikrein KIN Inh IC50
Sequence of human plasma kallikrein (P03952 391-638 limits assumed): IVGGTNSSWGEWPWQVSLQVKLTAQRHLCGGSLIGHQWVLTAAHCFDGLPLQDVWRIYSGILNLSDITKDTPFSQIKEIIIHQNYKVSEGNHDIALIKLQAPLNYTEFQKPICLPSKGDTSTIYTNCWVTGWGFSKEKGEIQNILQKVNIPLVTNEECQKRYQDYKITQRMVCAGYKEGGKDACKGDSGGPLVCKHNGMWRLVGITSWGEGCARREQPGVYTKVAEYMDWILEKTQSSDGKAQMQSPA
Sequence of human plasma kallikrein (P03952 20-390 partner limits assumed): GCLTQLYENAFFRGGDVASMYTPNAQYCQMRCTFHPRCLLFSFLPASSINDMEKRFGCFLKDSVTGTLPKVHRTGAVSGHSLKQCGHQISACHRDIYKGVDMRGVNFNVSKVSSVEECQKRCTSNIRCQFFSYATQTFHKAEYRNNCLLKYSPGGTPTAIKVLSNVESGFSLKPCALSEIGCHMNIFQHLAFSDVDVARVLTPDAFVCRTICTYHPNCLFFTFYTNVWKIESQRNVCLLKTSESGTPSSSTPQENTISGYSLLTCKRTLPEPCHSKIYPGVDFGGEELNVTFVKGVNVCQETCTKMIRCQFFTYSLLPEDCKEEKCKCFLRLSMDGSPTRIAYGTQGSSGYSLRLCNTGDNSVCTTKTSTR
Source text: Biological Example 2: Kallikrein Inhibition Assay Utilizing a Quenched AMC Peptide Substrate A fluorescence intensity (FLINT) based assay was used to monitor inhibition of human plasma kallikrein. The peptide substrate, Z-Gly-Pro-Arg-AMC (Purchased from Bachem; Catalog #I-1150) was chosen based on its relatively low KM for kallikrein which enables running the assay at lower substrate concentrations to control background fluorescence.
The Kallikrein FLINT assay was used with the following Z-Gly-Pro-Arg-AMC assay buffer: 50 mM Tris, pH 7.5, 100 mM NaCl, 5 mM CaCl2, 0.1 mg/mL BSA, 0.03% CHAPS. Assay buffer was prepared by mixing all ingredients fresh. 2× Z-Gly-Pro-Arg-AMC peptide substrate was prepared by diluting 10 mM stock into 1× assay buffer for a 100 μM working concentration (50 μM final concentration). The 2× kallikrein stock solution was prepared by diluting 14.76 μM stock in 1× assay buffer for a 4 nM working stock solution (2 nM final concentration).
Test compound(s) were run in an 11-point, 3-fold serial dilution with a final top compound concentration of 1 μM. Final DMSO in assay was 2%. Plasma kallikrein was pre-incubated for 30-minute with compound and then 50 μM substrate was added to initiate the reaction. The assay was run with kinetic (KIN) reads at 5 min intervals over 30 minutes. The time course was linear using 2 nM kallikrein greater than 30 minutes. More specifically, the assay was run as follows: • 100 nL of 0.1 mM test compound was dispensed into black 384-well non-binding Greiner BioOne 784900 plate for 1 μM final concentration; • 5 μL of 1× assay buffer was dispensed to columns 24 (low control) and 5 μL 2× human kallikrein enzyme solution was dispensed to columns 1-23 (column 23 high control); • the plate was centrifuged with a “cover” plate at 500 rpm for 1 min • the plate was pre-incubated for 30 minutes at room temperature with plate covered; • 5 μL of 2× Z-Gly-Pro-Arg-AMC peptide substrate was dispensed into the entire plate, columns 1-24; • the plate was centrifuged with a “cover” plate at 500 rpm for 1 min; • the plate was read monitoring fluorescence intensity on the BMG PHERAStar at room temperature, using fluorescence module 340 nm/440 nm.
(§1) Percent inhibition (IC50) curves were generated per compound tested, and data was analyzed using a 4-parameter logistic fit using GeneData Screener. The relative fluorescence unit (RFU) values were normalized to percent inhibition using the following equation:
% inhibition=((HC−LC)−(compound−LC)/(HC−LC))*100 where LC—low control=mean signal of […] or 100% inhibition of human kallikrein enzyme; HC—high control=mean signal of […]+Z-Gly-Pro-Arg-AMC peptide substrate with DMSO only.
(§2) An 11-point dose response curve for the test compound(s) was generated using GENDATA to determine IC50 value based on the following equation:
(§3) Y=Bottom+(Top−Bottom)/(1+10^((log IC50−X)*HillSlope)) where Y is the % inhibition in the presence of X inhibitor concentration, Top=high control=mean signal of human kallikrein enzyme+Z-Gly-Pro-Arg-AMC peptide substrate with DMSO only; Bottom=low control−mean signal of no human kallikrein enzyme or 100% inhibition of human kallikrein enzyme; HillSlope−Hill coefficient; and IC50=concentration of compound with 50% inhibition in relation to top/high control.

Factor XIa = Factor XIa (Homo sapiens, UniProt P03951); test: Factor XIa inhibition assay (FLINT) utilizing a fluorophore-quencher pair peptide substrate 5Fam-[…]-K5Tamra; type: biochemical; details: kinetic (KIN) reads; values in nM; read-out: FXIa KIN Inh IC50
Sequence of Factor XIa (P03951 388-625 limits assumed): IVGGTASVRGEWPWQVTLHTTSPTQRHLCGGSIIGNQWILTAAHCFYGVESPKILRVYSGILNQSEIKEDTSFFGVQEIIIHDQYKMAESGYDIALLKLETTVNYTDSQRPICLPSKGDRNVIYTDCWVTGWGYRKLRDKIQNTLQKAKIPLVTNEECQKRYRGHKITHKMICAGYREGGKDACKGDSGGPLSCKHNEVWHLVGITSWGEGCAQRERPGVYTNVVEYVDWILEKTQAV
Sequence of Factor XIa (P03951 19-387 partner limits assumed): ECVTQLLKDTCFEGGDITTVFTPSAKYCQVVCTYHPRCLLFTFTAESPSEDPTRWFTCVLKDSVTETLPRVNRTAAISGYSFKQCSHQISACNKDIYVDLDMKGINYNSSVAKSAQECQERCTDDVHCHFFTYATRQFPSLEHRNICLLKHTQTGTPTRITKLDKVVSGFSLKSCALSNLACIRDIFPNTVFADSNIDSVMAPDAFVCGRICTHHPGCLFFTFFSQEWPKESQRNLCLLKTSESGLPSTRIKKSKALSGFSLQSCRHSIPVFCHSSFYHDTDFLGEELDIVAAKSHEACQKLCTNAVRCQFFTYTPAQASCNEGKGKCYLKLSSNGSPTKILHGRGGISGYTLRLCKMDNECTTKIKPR
Source text: Biological Example 1: Factor XIa Inhibition Assay Utilizing a Fluorophore-Quencher Pair Peptide Substrate A fluorescence intensity (FLINT) based assay was used to monitor inhibition of Factor XIa. The peptide substrate, 5Fam-[…]-K5Tamra (purchased from New England Peptide) was chosen based on the FXI sequence. Conversion of zymogen FXI to its activated form, FXIa, occurs by proteolytic cleavage by […] at two sites, Arg146 and Arg180. The custom peptide used in this assay was based on the Arg146 cleavage site of FXI. The peptide substrate was designed with a fluorophore-quencher pair, where the fluorescence is quenched until FXIa cleaves the 8-mer peptide after the Arg residue.
The Factor XIa FLINT assay was used with the following 5Fam-[…]-K5Tamra assay buffer: 50 mM Tris, pH 7.5, 100 mM NaCl, 5 mM CaCl2, 0.1 mg/mL BSA, 0.03% CHAPS. Assay buffer was prepared by mixing all ingredients fresh. 5Fam-[…]-K5Tamra peptide substrate was first prepared at 10 mM in 100% DMSO, then diluted to 3 mM in 100% DMSO. Assay buffer was then added directly to the 3 mM stock of substrate to prepare the 30 μM 2× working concentration (15 μM final concentration). The 2× Factor XIa stock solution was prepared by diluting 6.562 μM stock in 1× assay buffer for a […].
Test compound(s) were run in an 11-point, 3-fold serial dilution with a final top compound concentration of 100 nM. Final DMSO in assay was 2%. FXIa was preincubated with compound for 30-minutes and then substrate was added to initiate the reaction. The assay was run with kinetic (KIN) reads at 5 min intervals over 30 minutes. […] More specifically, the assay was run as follows: • 100 nL of 0.01 mM test compound was dispensed into black 384-well non-binding Greiner BioOne 784900 plate for 0.1 μM final concentration; • 5 μL of 1× assay buffer was dispensed to column 24 (low control) and 5 μL 2× Factor XIa solution was dispensed to columns 1-23 (column 23 high control); • the plate was centrifuged with a “cover” plate at 500 rpm for 1 min • the plate was pre-incubated for 30 minutes at room temperature with plate covered; • 5 μL of 2×5Fam-[…]-K5Tamra peptide substrate was dispensed into the entire plate, columns 1-24; • the plate was centrifuged with a “cover” plate at 500 rpm for 1 min; • the plate was read monitoring fluorescence intensity on the BMG PHERAStar at room temperature, using fluorescence module 485 nm/520 nm.
as §1
% inhibition=((HC−LC)−(compound−LC)/(HC−LC))*100 where LC−low control=mean signal of no Factor XIa or 100% inhibition of Factor XIa; HC−high control=mean signal of Factor XIa+5Fam-[…]-K5Tamra peptide substrate with DMSO only.
as §2
as §3, with “Factor XIa+5Fam-[…]-K5Tamra” for “human kallikrein enzyme+Z-Gly-Pro-Arg-AMC”, “Factor XIa” for “human kallikrein enzyme”, “Factor XIa;” for “human kallikrein enzyme;”

| IC50 (human plasma kallikrein; values in nM) [nM] | IC50 (Factor XIa) [nM] | IC50 (human plasma kallikrein; unit μM) [nM] | Structure (SMILES) |
| --- | --- | --- | --- |
| 118 | 19.4 |  | O=c1cc(-c2c(-n3cnnn3)ccc(Cl)c2F)nc2n1C(c1nc(F)c(-c3ccnc(CO)c3F)[nH]1)CC21CC1 (racemic) [Example 69, 2′-(3-Chloro-2-fluoro-6-(1H-tetrazol-1-yl)phenyl)-6′-(4-fluoro-5-(3-fluoro-2-(hydroxymethyl)pyridin-4-yl)-1H-imidazol-2-yl)-6′,7′-dihydro-4′H-spiro[cyclopropane-1,8′-pyrrolo[1,2-a]pyrimidin]-4′-one] |
|  |  | 3400 | C[C@H]1C[C@@H](c2ncc(-c3ccc(N)nc3Cl)[nH]2)n2c1cc(-c1c(-n3cnnn3)ccc(Cl)c1F)cc2=O (relative stereo) [Example 57, (1*S,3*S)-3-(5-(6-Amino-2-chloropyridin-3-yl)-1H-imidazol-2-yl)-7-(3-chloro-2-fluoro-6-(1H-tetrazol-1-yl)phenyl)-1-methyl-2,3-dihydroindolizin-5(1H)-one] |
| 97.6 |  |  | O=c1cc(-c2c(-n3cnnn3)ccc(Cl)c2F)nc2n1C(c1ncc(-c3ccnc(C4(O)CC4)c3F)[nH]1)CC21CC1 (single isomer, unassigned) [Example 75, (R*)-2′-(3-Chloro-2-fluoro-6-(1H-tetrazol-1-yl)phenyl)-6′-(5-(3-fluoro-2-(1-hydroxycyclopropyl)pyridin-4-yl)-1H-imidazol-2-yl)-6′,7′-dihydro-4′H-spiro[cyclopropane-1,8′-pyrrolo[1,2-a]pyrimidin]-4′-one] |
|  |  | > 10000 | C[C@H]1CC(c2ncc(-c3ccnc(CN)c3)[nH]2)n2c1cc(-c1c(-n3cnnn3)ccc(Cl)c1F)cc2=O (stereo in doubt) [Example 39, (1*S,3*S)-3-(5-(2-(Aminomethyl)pyridin-4-yl)-1H-imidazol-2-yl)-7-(3-chloro-2-fluoro-6-(1H-tetrazol-1-yl)phenyl)-1-methyl-2,3-dihydroindolizin-5(1H)-one] |
| 11.6 |  |  | C[C@H]1C[C@@H](c2ncc(-c3ccc(N)nc3Cl)[nH]2)n2c1cc(-c1c(-n3cnnn3)ccc(Cl)c1F)cc2=O [Example 59, (1S,3S)-3-(5-(6-Amino-2-chloropyridin-3-yl)-1H-imidazol-2-yl)-7-(3-chloro-2-fluoro-6-(1H-tetrazol-1-yl)phenyl)-1-methyl-2,3-dihydroindolizin-5(1H)-one] |

Continued, compound first:

| Structure (SMILES) | IC50 (human plasma kallikrein; values in nM) [nM] | IC50 (Factor XIa) [nM] | IC50 (human plasma kallikrein; unit μM) [nM] |
| --- | --- | --- | --- |
| C[C@@H]1C[C@@H](c2ncc(-c3ccnc(CO)c3F)[nH]2)n2c1cc(-c1c(-n3cnnn3)ccc(Cl)c1F)cc2=O (relative stereo) [Example 1, (1R*,3S*)-7-(3-Chloro-2-fluoro-6-(1H-tetrazol-1-yl)phenyl)-3-(5-(3-fluoro-2-(hydroxymethyl)pyridin-4-yl)-1H-imidazol-2-yl)-1-methyl-2,3-dihydroindolizin-5(1H)-one] | 47 | 11 |  |
| C[C@H]1C[C@@H](c2ncc(-c3ccnc(CO)c3F)[nH]2)n2c1cc(-c1c(-n3cnnn3)ccc(Cl)c1F)cc2=O (relative stereo) [Example 2, (1 S*,3S*)-7-(3-Chloro-2-fluoro-6-(1H-tetrazol-1-yl)phenyl)-3-(5-(3-fluoro-2-(hydroxymethyl)pyridin-4-yl)-1H-imidazol-2-yl)-1-methyl-2,3-dihydroindolizin-5(1H)-one] | 170 | 22 |  |
| C[C@H]1C[C@@H](c2ncc(-c3ccc(N)nn3)[nH]2)n2c1cc(-c1c(-n3cnnn3)ccc(Cl)c1F)cc2=O (relative stereo) [Example 10, (1 S*,3S*)-3-(5-(6-Aminopyridazin-3-yl)-1H-imidazol-2-yl)-7-(3-chloro-2-fluoro-6-(1H-tetrazol-1-yl)phenyl)-1-methyl-2,3-dihydroindolizin-5(1H)-one] | 345 | 18.3 |  |
| C[C@H]1C[C@H](c2ncc(-c3ccnc(C#N)c3)[nH]2)n2c1cc(-c1c(-n3cnnn3)ccc(Cl)c1F)cc2=O (relative stereo) [Example 30, 4-(2-((1S,3R)-7-(3-Chloro-2-fluoro-6-(1H-tetrazol-1-yl)phenyl)-1-methyl-5-oxo-1,2,3,5-tetrahydroindolizin-3-yl)-1H-imidazol-5-yl)picolinonitrile] |  | 873 | 1200 |
| Cc1c(-c2cnc([C@H]3C[C@H](C)c4cc(-c5c(-n6cnnn6)ccc(Cl)c5F)cc(=O)n43)[nH]2)ccnc1C#N (relative stereo) [Example 31, 4-(2-((1S*,3R*)-7-(3-Chloro-2-fluoro-6-(1H-tetrazol-1-yl)phenyl)-1-methyl-5-oxo-1,2,3,5-tetrahydroindolizin-3-yl)-1H-imidazol-5-yl)-3-methylpicolinonitrile] | 635 | 250 |  |
| C[C@H]1C[C@@H](c2ncc(-c3ccnc(C#N)c3)[nH]2)n2c1cc(-c1c(-n3cnnn3)ccc(Cl)c1F)cc2=O (relative stereo) [Example 32, 4-(2-((1S,3S)-7-(3-Chloro-2-fluoro-6-(1H-tetrazol-1-yl)phenyl)-1-methyl-5-oxo-1,2,3,5-tetrahydroindolizin-3-yl)-1_H-imidazol-5-yl)picolinonitrile] | 90.7 | 11.2 |  |
| Cc1c(-c2cnc([C@@H]3C[C@H](C)c4cc(-c5c(-n6cnnn6)ccc(Cl)c5F)cc(=O)n43)[nH]2)ccnc1C#N (relative stereo) [Example 33, 4-(2-((1S*,3S*)-7-(3-Chloro-2-fluoro-6-(1H-tetrazol-1-yl)phenyl)-1-methyl-5-oxo-1,2,3,5-tetrahydroindolizin-3-yl)-1H-imidazol-5-yl)-3-methylpicolinonitrile] | 152 | 6.8 |  |
